The test system of one series is ccl2 promoter. The series can be described thus: ChIP of NF-κB and IRF-1 at the ccl2 promoter in primary astrocytes. It counts as cell-based, mouse. From the text:
FIGS. 4a-m. B4GALT6 regulates ccl2 transcriptional activity in astrocytes. (a) Murine ccl2 promoter. (b) Luciferase activity in 293T cells transfected with the ccl2 luciferase reporter plus one of the following constructs encoding IRF-1, p65 or an empty control vector (Empty). Results are relative to secreted alkaline phosphatase activity, presented as fold induction from empty vector. Data from three independent experiments, statistical analysis by Student's t-test. (c) ChIP analysis of the interaction of NF-κB, and IRF-1 with the ccl2 promoter in primary cultured astrocytes, pre-treated with PDMP and LacCer and activated with LPS/IFNγ (as in FIG. 3), 2 hours following LPS/IFNγ induction. (d-h) Recruitment of inflammatory monocytes (defined either as of CD11b^+ Ly6C^high or CD11b^+CD45^high cells) to the CNS of EAE NOD mice treated with PDMP or vehicle, as in (FIG. 1k), analyzed by flow cytometry and presented as cell frequency (e, g) and total cell numbers (f, h). Representative data of three independent experiments. […] (i) The frequency and number of CD11b^+ Ly6C^high monocytes as determined in the CNS 10 days after the i.c.v. injection of astrocytes-specific shRNA lentivirus as in (FIG. 3j). […] (j) monocytes were pre-treated for 1 h with PDMP, LacCer, both (LacCer+PDMP), or vehicle, and monocytes chemotaxis was measured using a transwell chamber system. […]

The next series relates to astrocytes. The series can be described thus: Viability assay, astrocytes. It counts as cell-based, mouse. As to conditions: 1 h pre-treatment at indicated concentrations, LPS/IFNγ, 6 h after activation. The method, then: FIGS. 14a-g. B4GALT6 directly controls astrocyte activation. (a) Cultured astrocytes were pre-treated for 1 h with PDMP (25 μM), LacCer (10 μM), both (LacCer+PDMP), or vehicle control (vehicle), followed by activation with LPS/IFNγ for 6 h, or left un-treated (control, Con). mRNA expression was analyzed 6 h following activation. qPCR analysis of the expression of cc/5, csf2, nos2, il6, H2-Aa, and tlr2 presented relative to gapdh. Statistical analysis by one-way ANOVA, followed by Tukey post-hoc analysis. (b, c) Cultured astrocytes were pre-treated for 1 h with LacCer (b) or PDMP (c), at indicated concentrations, followed by activation with LPS/IFNγ, or left un-treated (control, Con). Cell viability was determined 6 h after activation. […] Astrocytes were then pre-treated for 1 h with PDMP, or vehicle control (vehicle), followed by activation with LPS/IFNγ for 6 h, or left un-treated (control, Con). mRNA expression for H2-Aa, Ccl5 and Cxcl10 was determined; expression is presented as fold induction relative to housekeeping gene (Gapdh). […] (f) NF-κB (P65), GAPDH, and Lamin B expression, in cytoplasmic and nuclear fractions analyzed by western blot. The degree of NF-κB translocation to the nucleus was assessed by the ratio between the expression of P65 in nuclear and cytoplasmic fractions following densitometric quantification on four independent experiments (Right panel). […]

Entries after “also recorded” stand apart in the source; their conditions may differ.

Consider `CCCCCCCCCC(=O)N[C@H](CN1CCOCC1)[C@H](O)c1ccccc1` [PDMP, D-threo-1-phenyl-2-decanoylamino-3-morpholino-1-propanol], for which the “recruitment of NF-κB and IRF-1 to the ccl2 promoter” value in the series on ccl2 promoter (astrocytes activated with LPS/IFNγ, 2 hours) is given as “arrested”. In addition, the astrocyte viability entry with astrocytes is “did not affect astrocyte viability; also recorded: no significant cells death”.
Regarding lactosylceramide [LacCer], the “recruitment of NF-κB and IRF-1 to the ccl2 promoter, LacCer added to PDMP” value in the series with ccl2 promoter (LacCer + PDMP, LPS/IFNγ) is recorded as “abrogated”. In the series with astrocytes, the astrocyte viability entry is listed as “did not affect astrocyte viability; also recorded: no significant cells death”.

Source of the values: patent US9927437B2, “Treating neurodegenerative disease” (THE BRIGHAM AND WOMEN'S HOSPITAL, INC., priority 2013, dated 2018).
